Experiments:
[1] = Inhibition of superoxide radical formation by xanthine/xanthine oxidase (XXO); type: biochemical; conditions: screening concentration 500 µM
Description: 1. […]

[2] = Scavenging of diphenyl-picryl-hydrazyl radicals (DPPH); conditions: screening concentration 250 µM
Description: 1. Chemoprevention activity

[3] = test system: differentiated HL-60 cells; test: Inhibition of TPA-induced superoxide anion radical generation (HL-60 Antioxidant); type: cell-based, human; conditions: Homo sapiens, HL-60; screening concentration 100 µM; read-out: HL-60 Antiox. %Inh
Description: Inhibition of 12-O-tetradecanoylphorbol-13-acetate (TPA)-induced superoxide anion radical generation in differentiated HL-60 cells (HL-60 Antioxidant) TPA-induced superoxide anion radical formation was detected in differentiated HL-60 cells by photometric determination of cytochrome c reduction as previously described by Gerhäuser et al., 2003.ii Superoxide dismutase (SOD;15U) was a positive control. […]

[4] = test system: T47-D; test: MTT cytotoxicity, 48 h, without UVA; type: cell-based, human; conditions: for IC50: hormone-dependent breast cancer, read-out: Cytotoxic activity T47-D IC50; for Selectivity Index (SI): SI = IC50 for MRC-5/IC50 for T47-D
Description: (§1) Additionally, the cytotoxicity towards normal cells, human embryonal lung fibroblast cell MRC-5 was also assessed.
(§2) MDA-MB-231 (triple-negative breast cancer) was obtained from M.D. Anderson Cancer Center, Houston, TX, USA). T47-D (hormone-dependent breast carcinoma), SK-BR-3 (human HER2+ breast cancer), and MRC-5 (normal embryonic lung fibroblast) were obtained from the American Type Culture Collection (ATCC, Manassas, VA, USA).
(§3) The cytotoxic effect of tested compounds was evaluated in two breast cancer cell lines, MDA-MB-231 and T47-D. Number of survival cells after exposure to tested compounds for 48 h was determined by MTT assay, as previously described.

[5] = target: T1, aromatase (CYP19) (Homo sapiens, UniProt P11511); test: Inhibition of aromatase (AIA); type: biochemical; conditions: at 12.5 µM; I = %inhibition lower than 50%; read-out: Aromatase inhibitory activity %Inhibition
T1 sequence (P11511 1-503): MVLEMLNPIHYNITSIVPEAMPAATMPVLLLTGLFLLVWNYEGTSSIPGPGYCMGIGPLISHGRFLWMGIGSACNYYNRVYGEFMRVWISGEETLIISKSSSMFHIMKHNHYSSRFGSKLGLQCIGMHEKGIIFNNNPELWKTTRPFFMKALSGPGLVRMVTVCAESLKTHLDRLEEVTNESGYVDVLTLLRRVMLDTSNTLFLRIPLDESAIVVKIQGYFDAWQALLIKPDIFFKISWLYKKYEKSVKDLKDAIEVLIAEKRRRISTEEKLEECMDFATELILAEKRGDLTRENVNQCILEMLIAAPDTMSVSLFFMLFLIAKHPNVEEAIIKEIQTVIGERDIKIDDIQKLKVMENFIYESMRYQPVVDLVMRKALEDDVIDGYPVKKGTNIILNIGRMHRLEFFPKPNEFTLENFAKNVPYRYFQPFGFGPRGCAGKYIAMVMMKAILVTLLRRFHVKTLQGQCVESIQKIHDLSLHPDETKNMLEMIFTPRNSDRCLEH
Description: Estrogens are the critical risk factor for breast cancer initiation and progression and the aromatase enzyme involves in the final step conversion of androgens to estrogens[21],[22]. […] In this study, the synthesized psoralen derivatives were also tested for aromatase inhibitory activity (AIA) which is considered to be one of chemopreventive mechanisms for hormone dependent breast cancer.
Inhibition of the aromatase was performed using the method designed by Stresser et al.[39].

[6] = test system: MDA-MB-231; test: MTT cytotoxicity, 48 h, without UVA; type: cell-based; conditions: Homo sapiens, MDA-MB-231, light or radiation study; for IC50: hormone-independent breast cancer, read-out: Cytotoxic activity MDA-MB-231 IC50
Description: as §2, §3

[7] = MTT cytotoxicity towards normal cells, 48 h; type: cell-based; conditions: MRC-5 cells (normal embryonic lung fibroblasts), human embryonal lung fibroblast cell, without UVA, read-out: Cytotoxic activity MRC-5 IC50
Description: as §1, §2, §3

[8] = test system: SK-BR-3; test: Dark and light-activated (UVA) cytotoxicity, MTT; type: cell-based, human; conditions: for IC50: Homo sapiens, SK-BR-3, light or radiation study, irradiation with UVA (2.0 J cm^−2), HER2+ breast cancer
Description: (§4) The selected compounds were screened for their IC50 values against both HER2+ breast cancer (SK-BR-3), and HER2− breast cancer (MDA-MB-231) in both dark and light-activated conditions (Table 2). Additionally, a negative control study was also performed with SK-BR-3 and MDA-MB-231 cells in the absence of tested compound under UVA irradiation (See Fig S7., Supporting Information).
(§5) SK-BR-3 and MDA-MB-231 cells were seeded into 96-well cell culture plates at 5 × 10^3 cells/well and incubated for 24 h at 37 °C under 5% CO2. After that, the cells were treated with 50 μM of psoralen derivatives in DMEM with 10% FBS and the cells were continued incubation for another 4 h. After incubation, the cells were washed with PBS (3 times) and then irradiated by a 365 nm lamp with the light intensity of 2.0 J cm^−2 for 12.5 min before re-incubation for another 72 h. After incubation, the cell was treated with methylthiazolyldiphenyl-tetrazolium bromide (MTT reagent 200 μL, 0.5 mg mL^−1, Sigma-Aldrich) for 2 h. After reagent removal, DMSO was added to dissolve the formazan product and the cell viabilities were determined through UV–Vis absorption of the resulting formazan at wavelength 560 nm using a microplate reader (BMG Labtech/SPECTROstar Nano). The cell morphology images were captured by using a light microscope (Microscope Nikon, inverted digital) at 20X magnification prior to treating with MTT reagent.

[9] = test system: SK-BR-3; test: Dark and light-activated (UVA) cytotoxicity, MTT; type: cell-based; conditions: Homo sapiens, dark, HER2+ breast cancer
[10] = test system: MDA-MB-231; test: Dark and light-activated (UVA) cytotoxicity, MTT; type: cell-based; conditions: Homo sapiens, dark, HER2− breast cancer
[11] = test system: circulating estrogen levels; design: method as in PMID 10098905; conditions: female rats, dose-dependent; cited from earlier work
[12] = test system: MDA-MB-231; test: Dark and light-activated (UVA) cytotoxicity, MTT; type: cell-based; conditions: Homo sapiens, MDA-MB-231, light or radiation study; irradiation with UVA (2.0 J cm^−2); HER2− breast cancer
Description: as §4, §5

[13] = test system: SK-BR-3 cells; test: Cell morphology by light microscope; type: cell-based, human; conditions: 48 h
Description: as §5, with “After incubation, the cells were washed with PBS (3 times) and then irradiated by a 365 nm lamp with the light intensity of 2.0 J cm^−2 for 12.5 min before re-incubation for another 72 h.” left out

[14] = test system: 3T3; design: method as in PMID 32815004, PMID 20693013; conditions: cited from earlier work
[15] = test system: estrogen receptor in MCF-7 breast cancer cells; design: method as in PMID 23053665; conditions: MCF-7 breast cancer cells and tamoxifen-resistant clone; cited from earlier work
[16] = test system: ERα activity in MCF-7 cells; design: method as in PMID 31673107; conditions: read-out: IC50 antagonism of ERα activity in MCF-7 cells; cited from earlier work
[17] = Homo sapiens, T47D, light or radiation study, 48 h, without UVA

Compound	IC50 [4, 17]	Selectivity Index (SI) [4]	IC50 [6]	IC50 at 48 h [7]	IC50 [8]	IC50 [9]	IC50 [10]	circulating estrogen levels [11]	IC50 [12]	other results
COc1c2occc2c(NC(=O)c2cccc([N+](=O)[O-])c2)c2ccc(=O)oc12 [3f, N-(9-Methoxy-7-oxo-7H-furo[3,2-g]chromen-4-yl)-3-nitrobenzamide]	49.8 ± 0.5 µM	1.6	71 ± 2.34 µM	77.3 ± 3.52 µM	–	–	–	–	–	melting point: 267 to 268 °C; XXO %Inh [1]: 33%; DPPH %Inh [2]: 1%; inhibition at 100 µM [3]: 7%; inhibition at 12.5 µM [5]: 4%
COc1c2occc2cc2ccc(=O)oc12 [8-MOP, 8-methoxypsoralen, reference compound]	–	–	–	–	24.7 ± 3.02 µM	> 100 µM	> 100 µM	significantly reduced	> 100 µM	dark and light-activated cytotoxicity against SK-BR-3 (%viability screening) ([8]; 50 µM, absence and presence of UVA (2.0 J cm^−2), Fig. 3): little to no activity; inhibition at 50 µg/mL ([4]; Homo sapiens, T47D, light or radiation study, 48 h, without UVA, I = %inhibition lower than 50%, read-out: Cytotoxic activity T47-D %Inhibition): 16%; inhibition at 50 µg/mL ([6]; I = %inhibition lower than 50%, read-out: Cytotoxic activity MDA-MB-231 %Inhibition): 6%
CS(=O)(=O)CCNCc1ccc(-c2ccc3ncnc(Nc4ccc(OCc5cccc(F)c5)c(Cl)c4)c3c2)o1 [Lapatinib, reference compound]	9.78 ± 0.46 µM	5.0	53.37 ± 0.31 µM	48.8 ± 9.45 µM	0.16 ± 0.03 µM	25.3 ± 0.99 µM	73 ± 2.53 µM	–	8.6 ± 0.82 µM	morphology of SK-BR-3 cells under light activation ([13]; UVA 2.0 J cm^−2): morphological changes indicating apoptosis; morphology of SK-BR-3 cells under dark condition ([13]; dark): morphological changes indicating apoptosis; phototoxic potential (3T3 NRU assay) [14]: phototoxic potential
COc1c2ccoc2cc2oc(=O)ccc12 [bergapten]	–	–	–	–	–	–	–	significantly reduced	–	levels of estrogen receptor [15]: reduced; IC50 [16]: 1200 nM

Source: article PMC9356065, “Novel psoralen derivatives as anti-breast cancer agents and their light-activated cytotoxicity against HER2 positive breast cancer cells” (Scientific Reports, 2022)
